Test results as given in patent US10093696B2, “Nitric oxide donating carnosine compounds” (NICOX SCIENCE IRELAND, priority 2014, dated 2018).

Tests used:
[1] = tested on: ocular normotensive rabbits; experiment: Intraocular pressure (IOP) lowering activity in ocular normotensive New Zealand White rabbits; format: in vivo, New Zealand White (NZW) rabbits; settings: 1% eye drops; for duration of IOP reduction after single application (in words): compared to the reference compound; for IOP change 60 minutes / IOP change 120 minutes / IOP change 180 minutes / IOP change 240 minutes / IOP change 30 minutes / IOP change 300 minutes: single topical application
Description: The present study evaluated the long lasting intraocular pressure lowering effect of single application of two compounds of the inventions (compound (1a) and compound (4a)) with respect to a prior art compound, in an ocular normotensive animal model (rabbit) at the same concentrations.
Adult male New Zealand White (NZW) rabbits weighting 1.8-2.0 Kg were used in the experiments.
IOP was measured using a pneumatonometer 30 CLASSIC™ before topical application (basal) and at different time points (30, 60, 120, 240 and 300 min) thereafter. Vehicle (5% cremophor-EL; 0.3% DMSO; 0.2 mg/ml bac in PBS pH 6.0) or compound of the invention were instilled as eye drops into the conjunctiva pocket. Eyes were randomly assigned to different treatment groups. One drop of 0.4% oxybuprocaine hydrochloride (Novesine, Sandoz) was instilled in each eye immediately before each set of pressure measurements. Results are reported in Table 2 and they are expressed as IOP change (at 60, 120, 180 and 240 minutes following topical administration) versus vehicle and versus IOP at basal.
Ocular Normotensive Rabbit Model
IOP was measured using a pneumatonometer 30 CLASSIC™ before topical application (basal) and at different time points (30, 60, 120, 240 and 300 min) thereafter. Vehicle (5% cremophor-EL; 0.3% DMSO; 0.2 mg/ml bac in PBS pH 6.0) or compound (9) (1%) were instilled as eye drops into the conjunctiva pocket. Eyes were randomly assigned to different treatment groups. One drop of 0.4% oxybuprocaine hydrochloride (Novesine, Sandoz) was instilled in each eye immediately before each set of pressure measurements.
Experimental data are reported in Table 4 and they are expressed as IOP change (at 60, 120, 180 and 240 minutes following topical administration) versus vehicle and versus IOP at basal.
The IOP-lowering effects of compound (9) and of the Reference compound were assessed in the same normotensive rabbit model, see Example 10, but using different groups of […] rabbits.

[2] = tested on: hypertonic saline-induced IOP increase in rabbits; experiment: Intraocular pressure (IOP) lowering activity in hypertonic saline-induced IOP increase in rabbits; format: in vivo, New Zealand White rabbits; settings: for IOP reduction after single application (in words): compared to ISMN and timolol; for IOP change 60 minutes / IOP change 120 minutes / IOP change 240 minutes: single topical application
Description: The present study evaluated the intraocular pressure lowering effect of single applications of two compounds of the inventions (compound (1a) and compound (4a)) and two reference compounds at the same concentrations and in rabbits with induced IOP increase.
Adult male New Zealand White rabbits weighting 1.8-2.0 Kg were used in the experiments.
The transient increase in IOP was induced by the injection of 0.1 ml of hypertonic saline solution (5%) into the vitreous bilaterally (Krauss et al., 2011, Orihashi et al., 2005).
(§1) IOP was measured using a Tono-Pen XL prior to hypertonic saline injection (basal) and at 30, 60, 120 and 240 min thereafter. Vehicle (5% cremophor-EL; 0.3% DMSO; 0.2 mg/ml Benzalkonium chloride in PBS pH 6.0) or compound (1.0%) was instilled as eye drops immediately after hypertonic saline injection. Eyes were randomly assigned to different treatment groups. Vehicle and compounds were directly instilled into the conjunctiva pocket at the desired doses. One drop of 0.4% oxybuprocaine hydrochloride (Novesine, Sandoz) was instilled in each eye immediately before each set of pressure measurements.
Results are reported in Table 1 and they are expressed as IOP change (at 60, 120 and 240 minutes following topical administration) versus vehicle and versus IOP at basal before hypertonic saline injection.
Hypertonic Saline-Induced IOP Increase Rabbit Model
as §1, with “compound (9)” for “compound”, “compound (9)” for “compounds”
Experimental data are reported in Table 3 and they are expressed as IOP change (at 60, 120 and 240 minutes following topical administration) versus vehicle and versus IOP at basal before hypertonic saline injection
The hypotensive effects of compound (9) and of ISMN and timolol were evaluated using the same transient ocular hypertensive rabbit model, see Example 9, but in different groups of hypertensive rabbits.

[3] = Table 2, versus vehicle and versus basal IOP
[4] = Table 1, conc. 1% eye drops, versus vehicle and versus basal IOP
[5] = Table 4, versus vehicle and basal, reference from different groups of rabbits (Example 10)
[6] = Table 3, 1% eye drops, versus vehicle and basal, references from different groups of rabbits (Example 9)

Structure (SMILES) | duration of IOP reduction after single application (in words) [1] | IOP change 60 minutes [1, 3] [mmHg] | IOP change 120 minutes [1, 3] [mmHg] | IOP change 180 minutes [1, 3] [mmHg] | IOP change 240 minutes [1, 3] [mmHg] | IOP reduction after single application (in words) ([2]; 1% eye drops) | IOP change 60 minutes [2, 4] [mmHg] | IOP change 120 minutes [2, 4] [mmHg] | IOP change 240 minutes [2, 4] [mmHg] | IOP change 30 minutes [1, 5] [mmHg] | IOP change 60 minutes [1, 5] [mmHg] | IOP change 120 minutes [1, 5] [mmHg] | IOP change 180 minutes [1, 5] [mmHg] | IOP change 240 minutes [1, 5] [mmHg] | IOP change 300 minutes [1, 5] [mmHg] | IOP change 60 minutes [2, 6] [mmHg] | IOP change 120 minutes [2, 6] [mmHg] | IOP change 240 minutes [2, 6] [mmHg]
COC(=O)[C@H](Cc1c[nH]cn1)NC(=O)CCNC(=O)CCCCO[N+](=O)[O-].Cl [Compound (1a), (S)-methyl-3-(1H-imidazol-4-yl)-2-(3-(5-(nitrooxy)pentanamido)propanamido)propanoate hydrochloride] | significantly longer IOP reduction | −1.2 ± 1.0 | −1.5 ± 0.9 | −1.9 ± 0.9 | −1.7 ± 1.2 | significant IOP reduction | −11.4 ± 0.8 | −12.9 ± 0.4 | −7.4 ± 0.5 |  |  |  |  |  |  |  |  | 
O=C(CCCCCO[N+](=O)[O-])NCCC(=O)N[C@@H](Cc1c[nH]cn1)C(=O)O [Compound (4a), (S)-3-(1H-imidazol-4-yl)-2-(3-(6-(nitrooxy)hexanamido)propanamido) propanoic acid 2,2,2-trifluoroacetate] | significantly longer IOP reduction | −1.6 ± 0.4 | −1.5 ± 0.6 | −1.4 ± 0.6 | −0.9 ± 0.6 | significant IOP reduction | −7.6 ± 1.6 | −9.0 ± 1.2 | −5.3 ± 0.6 |  |  |  |  |  |  |  |  | 
COC(=O)[C@H](Cc1c[nH]cn1)NC(=O)CCNC(=O)CCC[C@@H](CO[N+](=O)[O-])O[N+](=O)[O-] [Compound (9), (S)-methyl 2-(3-((S)-5,6-bis(nitrooxy)hexanamido)propanamido)-3-(1H-imidazol-4-yl)propanoate] | long lasting IOP-lowering effect |  |  |  |  | significant IOP reduction |  |  |  | −1.6 ± 0.2 | −1.0 ± 0.4 | −1.3 ± 0.2 | −1.3 ± 0.3 | −1.5 ± 0.4 | −1.5 ± 0.4 | −7.2 ± 1.0 | −6.4 ± 1.0 | −3.9 ± 0.9
O=[N+]([O-])O[C@@H]1CO[C@H]2[C@@H]1OC[C@@H]2O [ISMN, Isosorbide mononitrate, reference compound] |  |  |  |  |  |  | −0.7 ± 2.9 | −6.6 ± 1.8 | −1.2 ± 1.3 |  |  |  |  |  |  | −0.7 ± 2.9 | −6.6 ± 1.8 | −1.2 ± 1.3
NCCC(=O)N[C@@H](Cc1c[nH]cn1)C(=O)NC[C@H](CO[N+](=O)[O-])O[N+](=O)[O-].O=C(O)C(F)(F)F [Ref. compound, (R)-3-((S)-2-(3-aminopropanamido)-3-(1H-imidazol-4-yl)propanamido)propane-1,2-diyl dinitrate 2,2,2-trifluoroacetate, reference compound] |  | −0.8 ± 0.6 | −0.3 ± 0.4 | −0.2 ± 0.4 | −0.05 ± 0.6 |  |  |  |  | −1.0 ± 0.5 | −0.8 ± 0.6 | −0.3 ± 0.4 | −0.2 ± 0.4 | −0.05 ± 0.6 | −0.7 ± 0.4 |  |  | 
CC(C)(C)NC[C@H](O)COc1nsnc1N1CCOCC1 [Timolol, reference compound] |  |  |  |  |  |  | −5.7 ± 1.4 | −8.4 ± 1.2 | 0.2 ± 1.2 |  |  |  |  |  |  | −5.7 ± 1.4 | −8.4 ± 1.2 | 0.2 ± 1.2
